Results from article PMC4125136, “A Novel Dual Allosteric Activation Mechanism of Escherichia coli ADP-Glucose Pyrophosphorylase: The Role of Pyruvate” (PLoS ONE, 2014).
Where “and” joins values, the source holds several entries; their conditions need not be identical. Equal values may be shown once. Read-outs that look alike come from different tables or passages of the source.

Assays:
E. coli ADP-Glc PPase [1] = biological target: T1, E. coli ADP-Glc PPase (Escherichia coli, UniProt P0A6V1); experiment: ADP-Glc synthesis assay (Pi formation, Malachite Green) with Hill-equation kinetic characterization; format: biochemical; settings: for IC50: read-out: I 0.5 for AMP
T1 construct: made in house; host or cells: E. coli BL21 (DE3)
T1 sequence (P0A6V1 whole entry): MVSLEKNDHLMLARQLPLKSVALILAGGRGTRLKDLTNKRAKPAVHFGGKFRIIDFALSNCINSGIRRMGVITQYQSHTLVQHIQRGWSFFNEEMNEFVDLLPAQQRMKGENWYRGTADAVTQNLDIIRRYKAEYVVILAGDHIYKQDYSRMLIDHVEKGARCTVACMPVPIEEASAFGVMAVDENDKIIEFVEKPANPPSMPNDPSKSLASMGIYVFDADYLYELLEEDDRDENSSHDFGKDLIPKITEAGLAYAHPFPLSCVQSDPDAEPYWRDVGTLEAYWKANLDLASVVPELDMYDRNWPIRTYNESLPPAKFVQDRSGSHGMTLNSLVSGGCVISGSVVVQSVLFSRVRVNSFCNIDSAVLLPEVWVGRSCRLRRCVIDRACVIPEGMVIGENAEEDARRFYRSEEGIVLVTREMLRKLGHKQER
Experimental: Synthesis of ADP-Glc was assayed by following the formation of Pi (after hydrolysis of pyrophosphate by inorganic pyrophosphatase) as previously described. Unless otherwise stated, a 50 µl reaction mixture contained 100 mM HEPES (pH 8.0), 10 mM MgCl2, 1.5 mM ATP, 0.2 mg/ml bovine serum albumin, 0.5 mU/µl yeast inorganic pyrophosphatase, and the given amount of enzyme. Assays were initiated with 1 mM Glc-1P. If mentioned, a given amount of Pyr, Fru-1,6-P2, and/or AMP was also included. After incubation for 10 min at 37°C, addition of Malachite Green reagent terminated the reaction. The complex formed with the released Pi was measured at 630 nm with an ELISA EMax detector (Molecular Devices). Sodium pyrophosphate was used as standard. One unit of enzyme activity was defined as the amount producing of 1 µmol of product in 1 min under the specified conditions.
Data of enzyme activity were plotted versus effector concentration. Kinetic parameters from the Hill equation such as Hill coefficient (n H), maximal velocity (V max), as well as the activator substrate or inhibitor concentrations giving 50% of the maximal activation (A 0.5), velocity (S 0.5), or inhibition (I 0.5), were acquired by fitting the data with a non-linear least-squares algorithm using the program Origin 7.0 (OriginLab). Parameters are the mean of at least three independent sets of data, reproducible within ±10%. Sample standard deviations of the data were calculated from the Hill equation fitting by using the Levenberg–Marquardt method.

[2] = test system: A. tumefaciens ADP-Glc PPase; design: method as in PMID 9721178; settings: cited from earlier work
E. coli ADP-Glc PPase [3] = biological target: T1, E. coli ADP-Glc PPase; settings: cited from earlier work
[4] = 50 µM AMP and 100 µM Fru-1,6-P2 (Figure 5)
[5] = F. 50 mM Pyr +150 µM Fru-1,6-P2

## Nc1ncnc2c1ncn2[C@@H]1O[C@H](COP(=O)(O)O)[C@@H](O)[C@H]1O [AMP]
E. coli ADP-Glc PPase [1]; 100 µM Fru-1,6-P2, absence of Pyr
  n H of AMP inhibition: 1.7
E. coli ADP-Glc PPase [1]; 100 µM Fru-1,6-P2, absence of Pyr (Figure 4)
  IC50: 30 µM
E. coli ADP-Glc PPase [1]; 100 µM Fru-1,6-P2, both in absence and presence of 20 mM Pyr
  remaining activity at maximum inhibition: around 10%
E. coli ADP-Glc PPase [1]; 100 µM Fru-1,6-P2, presence of 20 mM Pyr
  n H of AMP inhibition: 2.4
E. coli ADP-Glc PPase [1]; 100 µM Fru-1,6-P2, presence of 20 mM Pyr (Figure 4)
  IC50: 110 µM

## Cc1ncc(COP(=O)(O)O)c(C=O)c1O [PLP, pyridoxal-5′-phosphate]
E. coli ADP-Glc PPase [1]; absence of Pyr (Figure 3B), read-out: A 0.5 for PLP
  EC50: 2.7 µM
E. coli ADP-Glc PPase [1]; presence of 10 mM Pyr (Figure 3B), read-out: A 0.5 for PLP
  EC50: 1 µM

## CC(=O)C(=O)O [Pyr, pyruvate]
E. coli ADP-Glc PPase [1]; [4]
  activation of the partially inhibited enzyme: 4 fold
  nH of Pyr activation: 1.2
E. coli ADP-Glc PPase [1]; 50 µM AMP and 100 µM Fru-1,6-P2 (Figure 5), read-out: A 0.5 for Pyr
  EC50: 2760 µM
E. coli ADP-Glc PPase [1]; 20 mM Pyr with 100 µM Fru-1,6-P2, control without Pyr 31.2 U/mg
  absolute activity (reference for relative activity, Figure 4): 61.8 U/mg
E. coli ADP-Glc PPase [1]; 20 mM Pyr, 100 µM Fru-1,6-P2
  decrease of apparent affinity for AMP: 3 fold
E. coli ADP-Glc PPase [1]; 20 mM Pyr, 100 µM Fru-1,6-P2, 0.05–0.15 mM AMP range
  enzyme more active if Pyr was present (relative activities): up to 3 fold
E. coli ADP-Glc PPase [1]; 25 mM Pyr combined with 10 µM Fru-1,6-P2, compared to absence of any effector
  increase of affinity for Glc-1P: 4.1 fold
E. coli ADP-Glc PPase [1]; 25 mM Pyr combined with 10 µM Fru-1,6-P2, vs no effector
  lowering of S 0.5 for ATP: 6.6 fold
E. coli ADP-Glc PPase [1]; 25 mM Pyr vs no effector
  lowering of S 0.5 for Glc-1P: 1.7 fold
  reduction of S 0.5 for ATP: 3.9 fold
E. coli ADP-Glc PPase [1]; 50 mM Pyr vs no effector
  lowering of S 0.5 for Glc-1P: 2.6 fold
  reduction of S 0.5 for ATP: 6.2 fold
E. coli ADP-Glc PPase [1]; 100 mM Pyr (highest concentration tested), no other effector
  increase of enzyme activity: 3.3 fold
E. coli ADP-Glc PPase [1]; B. 25 mM Pyr
  V max: 3.93±0.21 U/mg
E. coli ADP-Glc PPase [1]; C. 50 mM Pyr
  V max: 5.31±0.19 U/mg
E. coli ADP-Glc PPase [1]; D. 25 mM Pyr +10 µM Fru-1,6-P2
  V max: 31±2 U/mg
E. coli ADP-Glc PPase [1]; [5]
  V max: 104±5 U/mg
E. coli ADP-Glc PPase [1]; Figure 2, at increasing concentrations of Fru-1,6-P2
  A 0.5 for Pyr: low mM range
E. coli ADP-Glc PPase [1]; J. 50 mM Pyr +2 mM Fru-1,6-P2
  V max: 110±5 U/mg
E. coli ADP-Glc PPase [1]; Pyr alone
  increase in V max by Pyr: ~4 fold and 5 fold
E. coli ADP-Glc PPase [1]; absence of any other regulatory effector (Figure 1)
  nH of Pyr activation: 1.03
E. coli ADP-Glc PPase [1]; absence of any other regulatory effector (Figure 1), read-out: A 0.5 for Pyr
  EC50: 25000 µM
E. coli ADP-Glc PPase [1]; at 50 µM Fru-1,6-P2, read-out: A 0.5 for Pyr
  EC50: 5000 µM
E. coli ADP-Glc PPase [1]; in presence of 10 µM or 30 µM Fru-1,6-P2 (Figure 1)
  maximal activation by Pyr: ~6 fold
E. coli ADP-Glc PPase [1]; presence of 1 µM PLP (data not shown), read-out: A 0.5 for Pyr
  EC50: 3700 µM
[2]
  Pyr activation: 5 fold
[2]; read-out: A 0.5 for Pyr
  EC50: 130 µM
E. coli ADP-Glc PPase [3]; weak activation, read-out: A 0.5 for Pyr
  EC50: > 10000 µM

## O=C(COP(=O)(O)O)[C@@H](O)[C@H](O)[C@H](O)COP(=O)(O)O [Fru-1,6-P2, Fructose-1,6-bisphosphate]
E. coli ADP-Glc PPase [1]; 30 µM Fru-1,6-P2 (Figure 1)
  improvement of apparent affinity of the enzyme for Pyr: 8.4 fold
E. coli ADP-Glc PPase [1]; E. 10 µM Fru-1,6-P2
  V max: 6.21±0.19 U/mg
E. coli ADP-Glc PPase [1]; G. 150 µM Fru-1,6-P2
  V max: 63±4 U/mg
E. coli ADP-Glc PPase [1]; I. 2 mM Fru-1,6-P2
  V max: 108±6 U/mg
E. coli ADP-Glc PPase [1]; absence of Pyr (Figure 3A), read-out: A 0.5 for Fru-1,6-P2
  EC50: 120 µM
E. coli ADP-Glc PPase [1]; as stated in legend of Figure 5, read-out: A 0.5 for Fru-1,6-P2
  EC50: 100 µM
E. coli ADP-Glc PPase [1]; at 50 µM Fru-1,6-P2
  decrease of Pyr A 0.5: 5 fold
E. coli ADP-Glc PPase [1]; presence of 2.5 mM Pyr (Figure 3A), read-out: A 0.5 for Fru-1,6-P2
  EC50: 70 µM
E. coli ADP-Glc PPase [3]
  A 0.5 for Fru-1,6-P2: sub-millimolar range
  increase of enzyme activity: ~50 fold

## O=P(O)(O)OC1O[C@H](CO)[C@@H](O)[C@H](O)[C@H]1O (stereo partly drawn) [Glc-1P]
E. coli ADP-Glc PPase [1]; A. No effector
  Glc-1P S 0.5: 0.95 ± 0.07 mM
  Glc-1P n H: 1.1
E. coli ADP-Glc PPase [1]; B. 25 mM Pyr
  Glc-1P S 0.5: 0.57 ± 0.05 mM
  Glc-1P n H: 1.0
E. coli ADP-Glc PPase [1]; C. 50 mM Pyr
  Glc-1P S 0.5: 0.37 ± 0.02 mM
  Glc-1P n H: 0.9
E. coli ADP-Glc PPase [1]; D. 25 mM Pyr +10 µM Fru-1,6-P2
  Glc-1P S 0.5: 0.23 ± 0.02 mM
  Glc-1P n H: 1.3
E. coli ADP-Glc PPase [1]; E. 10 µM Fru-1,6-P2
  Glc-1P S 0.5: 0.77 ± 0.04 mM
  Glc-1P n H: 1.0
E. coli ADP-Glc PPase [1]; [5]
  Glc-1P S 0.5: 0.09 ± 0.01 mM
  Glc-1P n H: 1.1
E. coli ADP-Glc PPase [1]; G. 150 µM Fru-1,6-P2
  Glc-1P S 0.5: 0.12 ± 0.01 mM
  Glc-1P n H: 1.2
E. coli ADP-Glc PPase [1]; I. 2 mM Fru-1,6-P2
  Glc-1P S 0.5: 0.09 ± 0.01 mM
  Glc-1P n H: 1.3
E. coli ADP-Glc PPase [1]; J. 50 mM Pyr +2 mM Fru-1,6-P2
  Glc-1P S 0.5: 0.11 ± 0.01 mM
  Glc-1P n H: 1.0

## Nc1ncnc2c1ncn2[C@@H]1O[C@H](COP(=O)(O)OP(=O)(O)OP(=O)(O)O)[C@@H](O)[C@H]1O [ATP-Mg]
E. coli ADP-Glc PPase [1]; A. No effector
  ATP-Mg S 0.5: 6.49 ± 0.21 mM
  ATP-Mg n H: 1.5
E. coli ADP-Glc PPase [1]; B. 25 mM Pyr
  ATP-Mg S 0.5: 1.67 ± 0.08 mM
  ATP-Mg n H: 2.5
E. coli ADP-Glc PPase [1]; C. 50 mM Pyr
  ATP-Mg S 0.5: 1.05 ± 0.06 mM
  ATP-Mg n H: 2.2
E. coli ADP-Glc PPase [1]; D. 25 mM Pyr +10 µM Fru-1,6-P2
  ATP-Mg S 0.5: 0.99 ± 0.07 mM
  ATP-Mg n H: 3.6
E. coli ADP-Glc PPase [1]; E. 10 µM Fru-1,6-P2
  ATP-Mg S 0.5: 5.02 ± 0.25 mM
  ATP-Mg n H: 2.1
E. coli ADP-Glc PPase [1]; [5]
  ATP-Mg S 0.5: 0.37 ± 0.03 mM
  ATP-Mg n H: 2.4
E. coli ADP-Glc PPase [1]; G. 150 µM Fru-1,6-P2
  ATP-Mg S 0.5: 1.31 ± 0.09 mM
  ATP-Mg n H: 3.2
E. coli ADP-Glc PPase [1]; I. 2 mM Fru-1,6-P2
  ATP-Mg S 0.5: 0.43 ± 0.02 mM
  ATP-Mg n H: 2.1
E. coli ADP-Glc PPase [1]; J. 50 mM Pyr +2 mM Fru-1,6-P2
  ATP-Mg S 0.5: 0.19 ± 0.02 mM
  ATP-Mg n H: 1.4
